In brackets after ≈: the same amount, converted by molar mass.
Legend:
Pseudomonas fluorescens [1] = experiment: Antibacterial activity against Pseudomonas fluorescens NCIM 2059 measured after 8 hrs; format: functional; conditions: NCIM 2059, 8 h
Staphylococcus aureus [2] = experiment: Growth inhibition of Staphylococcus aureus NCIM 2602 at 1 ug/ml measured after 12 hrs relative to control; format: functional; conditions: NCIM 2602, 12 h, read-out: GI
Staphylococcus aureus [3] = experiment: Growth inhibition of Staphylococcus aureus NCIM 2602 at 10 ug/ml measured after 12 hrs relative to control; format: functional; conditions: NCIM 2602, 12 h, read-out: GI
[4] = system: Mycobacterium tuberculosis; experiment: Growth inhibition of Mycobacterium bovis BCG ATCC 35743 at 1 ug/ml by nitrate reductase based two-fold dilution assay relative to control; format: functional; conditions: BCG str. ATCC 35743, read-out: GI
Bacillus subtilis [5] = experiment: Growth inhibition of Bacillus subtilis NCIM 2162 at 30 ug/ml measured after 12 hrs relative to control; format: functional; conditions: NCIM 2162, 12 h, read-out: GI
Staphylococcus aureus [6] = experiment: Antibacterial activity against Staphylococcus aureus NCIM 2602 measured after 12 hrs; format: functional; conditions: NCIM 2602, 12 h
Pseudomonas fluorescens [7] = experiment: Growth inhibition of Pseudomonas fluorescens NCIM 2059 at 10 ug/ml measured after 8 hrs relative to control; format: functional; conditions: NCIM 2059, 8 h, read-out: GI
Escherichia coli [8] = experiment: Growth inhibition of Escherichia coli NCIM 2576 at 1 ug/ml measured after 8 hrs relative to control; format: functional; conditions: NCIM 2576, 8 h, read-out: GI
Pseudomonas fluorescens [9] = experiment: Growth inhibition of Pseudomonas fluorescens NCIM 2059 at 30 ug/ml measured after 8 hrs relative to control; format: functional; conditions: NCIM 2059, 8 h, read-out: GI
[10] = system: Mycobacterium tuberculosis; experiment: Growth inhibition of Mycobacterium tuberculosis H37Ra ATCC 25177 at 3 ug/ml by XTT dye based two-fold dilution method relative to control; format: functional; conditions: read-out: GI
Bacillus subtilis [11] = experiment: Growth inhibition of Bacillus subtilis NCIM 2162 at 1 ug/ml measured after 12 hrs relative to control; format: functional; conditions: NCIM 2162, 12 h, read-out: GI
Pseudomonas fluorescens [12] = experiment: Growth inhibition of Pseudomonas fluorescens NCIM 2059 at 1 ug/ml measured after 8 hrs relative to control; format: functional; conditions: NCIM 2059, 8 h, read-out: GI
[13] = system: Mycobacterium tuberculosis; experiment: Antitubercular activity against Mycobacterium tuberculosis H37Ra ATCC 25177 dormant stage by XTT dye based two-fold dilution method; format: functional
[14] = system: Mycobacterium tuberculosis; experiment: Growth inhibition of Mycobacterium bovis BCG ATCC 35743 at 30 ug/ml by nitrate reductase based two-fold dilution assay relative to control; format: functional; conditions: BCG str. ATCC 35743, read-out: GI
[15] = system: Mycobacterium tuberculosis; experiment: Growth inhibition of Mycobacterium bovis BCG ATCC 35743 at 10 ug/ml by nitrate reductase based two-fold dilution assay relative to control; format: functional; conditions: BCG str. ATCC 35743, read-out: GI
Staphylococcus aureus [16] = experiment: Growth inhibition of Staphylococcus aureus NCIM 2602 at 30 ug/ml measured after 12 hrs relative to control; format: functional; conditions: NCIM 2602, 12 h, read-out: GI
[17] = system: Mycobacterium tuberculosis; experiment: Growth inhibition of Mycobacterium tuberculosis H37Ra ATCC 25177 at 10 ug/ml by XTT dye based two-fold dilution method relative to control; format: functional; conditions: read-out: GI
Bacillus subtilis [18] = experiment: Growth inhibition of Bacillus subtilis NCIM 2162 at 10 ug/ml measured after 12 hrs relative to control; format: functional; conditions: NCIM 2162, 12 h, read-out: GI
Escherichia coli [19] = experiment: Growth inhibition of Escherichia coli NCIM 2576 at 10 ug/ml measured after 8 hrs relative to control; format: functional; conditions: NCIM 2576, 8 h, read-out: GI
[20] = system: Mycobacterium tuberculosis; experiment: Antitubercular activity against Mycobacterium bovis BCG ATCC 35743 dormant stage by nitrate reductase based two-fold dilution assay; format: functional; conditions: BCG str. ATCC 35743
Escherichia coli [21] = experiment: Growth inhibition of Escherichia coli NCIM 2576 at 30 ug/ml measured after 8 hrs relative to control; format: functional; conditions: NCIM 2576, 8 h, read-out: GI
Escherichia coli [22] = experiment: Antibacterial activity against Escherichia coli NCIM 2576 measured after 8 hrs; format: functional; conditions: NCIM 2576, 8 h
Bacillus subtilis [23] = experiment: Antibacterial activity against Bacillus subtilis NCIM 2162 measured after 12 hrs; format: functional; conditions: NCIM 2162, 12 h
[24] = system: Mycobacterium tuberculosis; experiment: Growth inhibition of Mycobacterium tuberculosis H37Ra ATCC 25177 at 30 ug/ml by XTT dye based two-fold dilution method relative to control; format: functional; conditions: read-out: GI
A549 = experiment: Growth inhibition of human A549 cells by MTT assay; format: cell-based; conditions: a549
PANC-1 = experiment: Growth inhibition of human PANC1 cells by MTT assay; format: cell-based; conditions: panc-1
HeLa = experiment: Growth inhibition of human HeLa cells by MTT assay; format: cell-based; conditions: hela

SMILES	MIC (Pseudomonas fluorescens [1])	inhibition of growth at 1 µg/mL (Staphylococcus aureus [2])	inhibition of growth at 10 µg/mL (Staphylococcus aureus [3])	inhibition of growth at 1 µg/mL [4]	inhibition of growth at 30 µg/mL (Bacillus subtilis [5])	MIC (Staphylococcus aureus [6])	inhibition of growth at 10 µg/mL (Pseudomonas fluorescens [7])	inhibition of growth at 1 µg/mL (Escherichia coli [8])	inhibition of growth at 30 µg/mL (Pseudomonas fluorescens [9])	inhibition of growth at 3 µg/mL [10]	inhibition of growth at 1 µg/mL (Bacillus subtilis [11])	inhibition of growth at 1 µg/mL (Pseudomonas fluorescens [12])	IC50 [13]	MIC90 [13]	inhibition of growth at 30 µg/mL [14]	inhibition of growth at 10 µg/mL [15]	inhibition of growth at 30 µg/mL (Staphylococcus aureus [16])	inhibition of growth at 10 µg/mL [17]	inhibition of growth at 10 µg/mL (Bacillus subtilis [18])	inhibition of growth at 10 µg/mL (Escherichia coli [19])	further results
Cc1nc(-c2ccc(F)cc2)oc1-c1csc(-c2cccc(Cl)c2)n1	> 100 µM	28.5%	35.7%	23%	50.8%	> 100 µM	38.3%	23.4%	48.3%	29%	28.8%	24.8%	> 100 µM	> 100 µM	32%	24%	48.1%	29%	40.6%	40.5%	IC50 [20]: > 100 µM; MIC90 [20]: > 100 µM; inhibition of growth at 30 µg/mL (Escherichia coli [21]): 49.5%; MIC (Escherichia coli [22]): > 100 µM; MIC (Bacillus subtilis [23]): > 100 µM; inhibition of growth at 30 µg/mL [24]: 32%
Cc1nc(-c2ccccc2)oc1-c1csc(-c2ccc(F)cc2)n1	> 100 µM	34.6%	41.7%	11%	60.6%	> 100 µM	45.1%	38.4%	61%	8%	37.7%	31.8%	> 100 µM	> 100 µM	27%	16%	60.5%	13%	49.4%	47.2%	IC50 [20]: > 100 µM; MIC90 [20]: > 100 µM; inhibition of growth at 30 µg/mL (Escherichia coli [21]): 58.5%; MIC (Escherichia coli [22]): > 100 µM; MIC (Bacillus subtilis [23]): > 100 µM; inhibition of growth at 30 µg/mL [24]: 13%
CC(=O)O[C@H]1C(=O)[C@@]2(C)[C@H]([C@H](OC(=O)c3ccccc3)[C@]3(O)C[C@H](OC(=O)[C@H](O)[C@@H](NC(=O)c4ccccc4)c4ccccc4)C(C)=C1C3(C)C)[C@]1(OC(C)=O)CO[C@@H]1C[C@@H]2O [PACLITAXEL]	–	–	–	–	–	–	–	–	–	–	–	–	–	–	–	–	–	–	–	–	GI90 (A549): 0.0706 µg/mL (≈ 0.0827 µM); GI90 (PANC-1): 5.715 µg/mL (≈ 6.69 µM); GI90 (HeLa): 0.075 µg/mL (≈ 0.0878 µM)
Cc1ccc(-c2nc(-c3oc(-c4ccccc4)nc3C)cs2)cc1	> 100 µM	5.6%	14.9%	25%	33.4%	> 100 µM	18.6%	7.19%	30.8%	13%	3.92%	2.57%	> 100 µM	> 100 µM	34%	34%	31.5%	15%	15.9%	11.1%	IC50 [20]: > 100 µM; MIC90 [20]: > 100 µM; inhibition of growth at 30 µg/mL (Escherichia coli [21]): 33.8%; MIC (Escherichia coli [22]): > 100 µM; MIC (Bacillus subtilis [23]): > 100 µM; inhibition of growth at 30 µg/mL [24]: 17%
